Assay results: US5162330A, “Dynemicin C antibiotic, its triacetyl derivative and pharmaceutical composition containing same” (Bristol-Myers Squibb Co., priority 1990, dated 1992)
≈ marks a conversion by molar mass, not a printed value.

What was measured:
[1] = tested on: E. cloacae IPM-12; test: In vitro antibacterial MIC; type: cell-based; conditions: Enterobacter cloacae, IPM12, 18 h, pH 7
Procedure: (§1) The minimum inhibitory concentration (MIC) was determined by a two-fold serial tube dilution method using nutrient agar (pH7, Difco containing 10^5 cfu/ml).

[2] = tested on: E. coli 255; test: In vitro antibacterial MIC; type: cell-based; conditions: Escherichia coli, 255, 18 h, pH 7
Procedure: as §1

[3] = tested on: E. coli Juhl A15119; test: In vitro antibacterial MIC; type: cell-based; conditions: Escherichia coli, JUHLA15119, 18 h, pH 7
Procedure: as §1

[4] = tested on: E. faecalis A9808; test: In vitro antibacterial MIC; type: cell-based; conditions: Enterococcus faecalis, A9808, 18 h, pH 7
Procedure: as §1

[5] = tested on: E. faecium A24817; test: In vitro antibacterial MIC; type: cell-based; conditions: Enterococcus faecium, pH 7, nutrient agar pH7, 32° C., 18 hours
Procedure: as §1

[6] = tested on: K. pneumoniae PCI 602; test: In vitro antibacterial MIC; type: cell-based; conditions: Klebsiella pneumoniae, PCI602, 18 h, pH 7
Procedure: as §1

[7] = tested on: M. luteus PCI 1001; test: In vitro antibacterial MIC; type: cell-based; conditions: Micrococcus luteus, PCI1001, pH 7, nutrient agar pH7, 32° C., 18 hours
Procedure: as §1

[8] = tested on: M. morganii I510; test: In vitro antibacterial MIC; type: cell-based; conditions: Morganella morganii, I510, 18 h, pH 7
Procedure: as §1

[9] = tested on: P. aeruginosa A20599; test: In vitro antibacterial MIC; type: cell-based; conditions: Pseudomonas aeruginosa, A20599, 18 h, pH 7
Procedure: as §1

[10] = tested on: P. aeruginosa A9843A; test: In vitro antibacterial MIC; type: cell-based; conditions: Pseudomonas aeruginosa, 18 h, pH 7
Procedure: as §1

[11] = tested on: P. aeruginosa IPM-8; test: In vitro antibacterial MIC; type: cell-based; conditions: Pseudomonas aeruginosa, IPM8, 18 h, pH 7
Procedure: as §1

[12] = tested on: P. aeruginosa IPM-9; test: In vitro antibacterial MIC; type: cell-based; conditions: Pseudomonas aeruginosa, IPM9, 18 h, pH 7
Procedure: as §1

[13] = tested on: P. aeruginosa KKA19; test: In vitro antibacterial MIC; type: cell-based; conditions: Pseudomonas aeruginosa, pH 7, nutrient agar pH7, 32° C., 18 hours
Procedure: as §1

[14] = tested on: P. cepecia A21213; test: In vitro antibacterial MIC; type: cell-based; conditions: 18 h, pH 7
Procedure: as §1

[15] = tested on: P. cepecia No. 651; test: In vitro antibacterial MIC; type: cell-based; conditions: 18 h, pH 7
Procedure: as §1

[16] = tested on: P. mirabilis IFO 3849; test: In vitro antibacterial MIC; type: cell-based; conditions: Proteus mirabilis, IFO3849, 18 h, pH 7
Procedure: as §1

[17] = tested on: P. rettgeri IPM-14; test: In vitro antibacterial MIC; type: cell-based; conditions: Providencia rettgeri, IPM14, 18 h, pH 7
Procedure: as §1

[18] = tested on: P. vulgaris IPM-13; test: In vitro antibacterial MIC; type: cell-based; conditions: Proteus vulgaris, IPM13, 18 h, pH 7
Procedure: as §1

[19] = tested on: S. aureus A15036 (MRSA); test: In vitro antibacterial MIC; type: cell-based; conditions: Staphylococcus aureus, 18 h, pH 7
Procedure: as §1

[20] = tested on: S. aureus IPM-24 (MRSA); test: In vitro antibacterial MIC; type: cell-based; conditions: Staphylococcus aureus, 18 h, pH 7
Procedure: as §1

[21] = tested on: S. aureus smith; test: In vitro antibacterial MIC; type: cell-based; conditions: Staphylococcus aureus, 18 h, pH 7
Procedure: as §1

[22] = tested on: S. epidermidis 11-1230; test: In vitro antibacterial MIC; type: cell-based; conditions: Staphylococcus epidermidis, 111230, 18 h, pH 7
Procedure: as §1

[23] = tested on: S. marcescens IPM-15; test: In vitro antibacterial MIC; type: cell-based; conditions: Serratia marcescens, IPM15, 18 h, pH 7
Procedure: as §1

[24] = tested on: S. marcescens IPM-16; test: In vitro antibacterial MIC; type: cell-based; conditions: Serratia marcescens, IPM16, 18 h, pH 7
Procedure: as §1

[25] = tested on: X. maltophilia GN12873; test: In vitro antibacterial MIC; type: cell-based; conditions: Stenotrophomonas maltophilia, pH 7, nutrient agar pH7, 32° C., 18 hours
Procedure: as §1

[26] = tested on: X. maltophilia No. 661; test: In vitro antibacterial MIC; type: cell-based; conditions: Stenotrophomonas maltophilia, pH 7, nutrient agar pH7, 32° C., 18 hours
Procedure: as §1

[27] = tested on: Candida albicans ATCC 38247; test: In vitro antifungal MIC; type: cell-based
Procedure: (§2) The antifungal MICs of dynemicin C and its triacetate were determined by an agar dilution method on yeast morphology agar adjusted to pH7.0 with 1/15M phosphate buffer. A 5 μl aliquot of fungal suspension containing 10^6 cells/ml was inoculated onto the surface of the antibiotic-containing agar plates with a multiinoculator.

[28] = tested on: Cryptococcus neoformans D49; test: In vitro antifungal MIC; type: cell-based
Procedure: as §2

[29] = tested on: C. neoformans IAM4514; test: In vitro antifungal MIC; type: cell-based, Cryptococcus neoformans
Procedure: as §2

[30] = tested on: B16-F10 (murine melanoma) cells; test: In vitro cytotoxicity; type: cell-based; conditions: Mus musculus, 72 hours, 37° C., neutral red, 540 nm
Procedure: (§3) Dynemicin C and its triacetate derivative were tested for in vitro cytotoxicity against murine and human tumor cell lines. Dynemicin A and its triacetate derivative were used as reference compounds. B16-F10 (murine melanoma) cells were grown to the logarithmic phase in enriched Eagle minimum essential medium (MEM) supplemented with fetal calf serum (FCS, 10%) and kanamycin (60 mcg/ml) and HCT-116 (human colon carcinoma) cells in Maccoy's 5A medium supplemented with FCS (10%), penicillin (100 μ/ml) and streptomycin (100 mcg/ml), and were harvested and inoculated into wells of the 96- or 24-well tissue culture plate with test materials at concentrations of 1.5×10^4, 1.3×10^4, 1.3×10^4, 2.5×10^4 and 3.0×10^4 cells/ml., respectively. They were incubated at 37° C. in a humidified atmosphere of 5% CO2 and 95% air for 72 hours. The cytotoxic activities were determined colorimetrically at 540 nm after staining viable cells with 0.006% neutral red solution.

[31] = tested on: HCT-116 (human colon carcinoma) cells; test: In vitro cytotoxicity; type: cell-based; conditions: 72 hours, 37° C., neutral red, 540 nm
Procedure: as §3

[32] = tested on: gram-positive organisms; test: In vitro antibacterial activity, gram-positive organisms as a group; type: cell-based
Procedure: as §1

[33] = tested on: gram-negative organisms; test: In vitro antibacterial activity, gram-negative organisms as a group; type: cell-based; conditions: other gram-negatives than P. aeruginosa, except Enterobacter cloacae IPM-12 and Serratia marcescens IPM-16
Procedure: as §1

[34] = tested on: Pseudomonas aeruginosa species; test: In vitro antibacterial activity, Pseudomonas aeruginosa as a group; type: cell-based; conditions: in words
Procedure: as §1

[35] = tested on: murine and human tumor cell lines; test: In vitro cytotoxicity, tumor cell lines as a group; type: cell-based; conditions: in words
Procedure: as §3

[36] = Solubility; type: physicochemical

For `COC1=C(C=O)C(C)C23OC24c2cc(O)c5c(c2NC3C#CC=CC#CC14)C(=O)c1c(O)ccc(O)c1C5=O` (centres unmarked) [Dynemicin C], the MIC [1] was 100 µg/mL (≈ 192 µM), the MIC [2] was 100 µg/mL (≈ 192 µM) and the MIC [3] was 100 µg/mL (≈ 192 µM). It also gave an MIC [4] of 0.0008 µg/mL (≈ 0.00153 µM), an MIC [5] of 0.0008 µg/mL (≈ 0.00153 µM) and an MIC [6] of 0.8 µg/mL (≈ 1.53 µM). For the same compound, the MIC [7] was 0.0008 µg/mL (≈ 0.00153 µM), the MIC [8] was 0.1 µg/mL (≈ 0.192 µM) and the MIC [9] was 100 µg/mL (≈ 192 µM). It also gave an MIC [10] of 100 µg/mL (≈ 192 µM), an MIC [11] of 100 µg/mL (≈ 192 µM) and an MIC [12] of 100 µg/mL (≈ 192 µM). For the same compound, the MIC [13] was 100 µg/mL (≈ 192 µM), the MIC [14] was 0.1 µg/mL (≈ 0.192 µM) and the MIC [15] was 0.1 µg/mL (≈ 0.192 µM). The MIC [16] was 0.8 µg/mL (≈ 1.53 µM), the MIC [17] was 0.1 µg/mL (≈ 0.192 µM) and the MIC [18] was 0.05 µg/mL (≈ 0.0959 µM). For the same compound, the MIC [19] was < 0.0002 µg/mL, the MIC [20] was < 0.0002 µg/mL and the MIC [21] was < 0.0002 µg/mL. For the same compound, the MIC [22] was < 0.0002 µg/mL, the MIC [23] was 25 µg/mL (≈ 47.9 µM) and the MIC [24] was 100 µg/mL (≈ 192 µM). For the same compound, the MIC [25] was 100 µg/mL (≈ 192 µM), the MIC [26] was 1.6 µg/mL (≈ 3.07 µM) and the “activity compared with ketoconazole” value ([27]; Candida albicans ATCC 38247, amphotericin resistant, in words) was “stronger than that of ketoconazole”. The MIC ([27]; Candida albicans, ATCC38247, 40 h, pH 7) was 0.8 µg/mL (≈ 1.53 µM), the “activity (compared with amphotericin B and ketoconazole)” value ([28]; Cryptococcus neoformans D49, in words) was “much more active than amphotericin B and ketoconazole” and the MIC ([28]; Cryptococcus neoformans, D49, 40 h, pH 7) was 0.0063 µg/mL (≈ 0.0121 µM). The “activity (compared with amphotericin B and ketoconazole)” value ([29]; C. neoformans IAM4514, in words) was “much more active than amphotericin B and ketoconazole”, the MIC ([29]; Cryptococcus neoformans, IAM4514, 40 h, pH 7) was 0.013 µg/mL (≈ 0.0249 µM) and the IC50 [30] was 0.0028 µg/mL (≈ 0.00537 µM). The IC50 [31] was 0.0086 µg/mL (≈ 0.0165 µM), the “activity against gram-positive organisms compared with amikacin” value ([32]; comparison in words) was “much better activities against these organisms than amikacin” and the “activity against gram-positive organisms” value ([32]; in words) was “strong activity”. For the same compound, the “activity against gram-negatives compared with amikacin” value [33] was “activity better than amikacin”, the “activity against Pseudomonas aeruginosa species” value [34] was “did not show any activity” and the “cytotoxic activity compared with dynemicin A” value [35] was “almost the same activity as dynemicin A”. For the same compound, the “solubility in 1,4-dioxane” value ([36]; 1,4-dioxane) was “soluble”, the solubility in acetonitrile ([36]; acetonitrile) was “soluble” and the solubility in dimethylformamide ([36]; dimethylformamide) was “soluble”. The solubility in dimethylsulfoxide ([36]; dimethylsulfoxide) was “soluble”, the “solubility in ethyl acetate” value ([36]; ethyl acetate) was “slightly soluble” and the solubility in methanol ([36]; methanol) was “slightly soluble”. For the same compound, the solubility in n-hexane ([36]; n-hexane) was “practically insoluble” and the solubility in water ([36]; water) was “practically insoluble”.
